Measured values from patent US20200022967A1, “Use of 2-carboxamide cycloamino urea derivatives in the treatment of EGFR dependent diseases or diseases that have acquired resistance to agents that target EGFR family members” (Novartis AG, priority 2010, published 2020).

Assays:
[1] = tested on: BT-474 tumors; assay: BT474 orthotopic xenograft, Compound A and trastuzumab combination (Example 3); type: in vivo, mice
Method: The Compound was fully dissolved in NMP. Then, PEG300 and liquified Solutol were added (in sequence with vortexing after addition of each reagent).
Where applicable, data is presented as mean±SEM.

[2] = tested on: HBCx-5 xenograft tumor; assay: HBCx-5 breast cancer xenograft, antitumor activity (Example 5); type: in vivo, mice; settings: Compound A 50 mg/kg p.o. daily for 42 days, single agent; p<0.001
Method: Compound A was suspended at mg/ml in 0.5% methylcellulose (Sigma Aldrich, St. Louis, Mo.). It was homogenized by stirring vortexing and sonication. The suspension was stored at 4° C. for 7 days protected from light. […] Stock solution at 21 mg/ml was diluted just before administration at 1 mg/ml with sterile water for injection. Capecitabine (Xeloda®, Roche) at […] was kept at 4° C. protected from light. Capecitabine pellets were crushed and suspended in NaCl 0.9%.
Dose was body weight adjusted at each injection.
Capecitabine was administered by oral gavage (p.o.) at […], five times per week for two weeks (i.e., five consecutive dosing days/week). After a one week rest, a second treatment cycle was performed.

Cc1nc(NC(=O)N2CCC[C@H]2C(N)=O)sc1-c1ccnc(C(C)(C)C(F)(F)F)c1 [Compound A, (S)-Pyrrolidine-1,2-dicarboxylic acid 2-amide 1-({4-methyl-5-[2-(2,2,2-trifluoro-1,1-dimethyl-ethyl)-pyridin-4-yl]-thiazol-2-yl}-amide)]
Change Tumor Volume ([1]; B: Compound A 12.5 mg/kg p.o. daily, control C 584.2): 125.7 | T/C ([1]; Compound A 12.5 mg/kg p.o. daily, single agent): 21.5% | antitumor effect ([1]; Compound A 50 mg/kg p.o. daily, single agent, p<0.05 Mann-Whitney): statistically significant antitumor effect | B/C ([1]; change tumor volume ratio, Compound A 12.5 mg/kg vs control): 0.215 | T/C [2]: 17.57%
